Reference: US5300629A, “Bactericidal and/or bacteriostatic peptides isolated from hemolymph of honeybees” (Plant Genetic Systems, N.V., priority 1987, dated 1994)
Where a SMILES comes first, the peptide text is derived from it.

Experiments:
Assay type in all cases: cell-based
[1] = test system: Micrococcus lysodeikticus LMG 4050; assay: Inhibition zone assay; set-up: key: --: "-" means that no inhibition has been found; settings: I and B 10 ul, L 5 ug
[2] = test system: Enterobacter cloacae BE 97; assay: Inhibition zone assay; set-up: key: --: "-" means that no inhibition has been found; settings: I and B 10 ul
Bacillus cereus LMG 2098 = assay: Inhibition zone assay; set-up: key: --: "-" means that no inhibition has been found
[3] = test system: Serratia fonticola ATCC 298449; assay: Inhibition zone assay; settings: I and B 10 ul, L 5 ug
[4] = test system: Streptococcus pyogenes NCTC 8193; assay: Inhibition zone assay; set-up: key: --: "-" means that no inhibition has been found; settings: I 10 ul
[5] = test system: Pseudomonas syringae pv. syringae ATCC 19310; assay: Inhibition zone assay; set-up: key: --: "-" means that no inhibition has been found
[6] = test system: Erwinia amylovora NCPPB 638; assay: Inhibition zone assay
Streptococci = assay: Growth-inhibition zone assay
[7] = test system: Bacillus megaterium QMB 1551; assay: Inhibition zone assay; set-up: key: --: "-" means that no inhibition has been found; settings: I and B 10 ul, L 5 ug
[8] = test system: Bacillus subtilis NRRL B-237; assay: Inhibition zone assay; settings: I and B 10 ul, L 5 ug
ATCC 17991 = assay: Inhibition zone assay; set-up: key: --: "-" means that no inhibition has been found; settings: Salmonella marcescens ATCC 17991
[9] = test system: Rhodococcus equi ATCC 25729; assay: Inhibition zone assay; set-up: key: --: "-" means that no inhibition has been found; settings: I and B 10 ul, L 5 ug
[10] = test system: Enterobacter agglomerans ICPB 3423; assay: Inhibition zone assay; set-up: key: --: "-" means that no inhibition has been found
[11] = test system: Xanthomonas campestris pv. oryzae IRN 235; set-up: key: --: "-" means that no inhibition has been found
[12] = test system: Pseudomonas paucimobilis ATCC 29837; assay: Inhibition zone assay; settings: L 5 ug
[13] = test system: Agrobacterium radiobacter ATCC 19358; assay: Inhibition zone assay; set-up: key: --: "-" means that no inhibition has been found; settings: I and B 10 ul, L 5 ug
[14] = test system: Rhizobium phaseoli CIAT 899; assay: Inhibition zone assay; set-up: key: --: "-" means that no inhibition has been found; settings: I and B 10 ul, L 5 ug
[15] = test system: Proteus morganii CuETM 77-83; assay: Inhibition zone assay; set-up: key: --: "-" means that no inhibition has been found; settings: I and B 10 ul, L 5 ug
[16] = test system: Haemophilus influenzae NCTC 8465; assay: Inhibition zone assay; set-up: key: --: "-" means that no inhibition has been found; settings: I 10 ul
[17] = test system: Enterobacter agglomerans Gilardi 1081; assay: Inhibition zone assay; set-up: key: --: "-" means that no inhibition has been found; settings: I and B 10 ul, L 5 ug
[18] = test system: Flavobacterium devorans NRRL B-54; assay: Inhibition zone assay; set-up: key: --: "-" means that no inhibition has been found; settings: I and B 10 ul, L 5 ug
[19] = test system: Lactobacillus acidophilus ATCC 4336; assay: Inhibition zone assay; set-up: key: --: "-" means that no inhibition has been found; settings: I 10 ul
[20] = test system: Salmonella Montevideo 80/141; assay: Inhibition zone assay; set-up: key: --: "-" means that no inhibition has been found; settings: I and B 10 ul
[21] = test system: Pseudomonas cepacia ATCC 25416; assay: Inhibition zone assay; set-up: key: --: "-" means that no inhibition has been found; settings: I and B 10 ul, L 5 ug
Salmonella Wien 83/16 = assay: Inhibition zone assay; set-up: key: --: "-" means that no inhibition has been found; settings: I and B 10 ul
[22] = test system: Xanthomonas campestris pv. vesicatoria XV82-4; assay: Inhibition zone assay; set-up: key: --: "-" means that no inhibition has been found; settings: I and B 10 ul, L 5 ug
[23] = test system: Pseudomonas acidovorans CuETM 83-109; assay: Inhibition zone assay; set-up: key: --: "-" means that no inhibition has been found; settings: I and B 10 ul, L 5 ug
[24] = test system: Staphylococcus hominis STH B3; assay: Inhibition zone assay; set-up: key: --: "-" means that no inhibition has been found; settings: L 5 ug
[25] = test system: Salmonella enteritidis 83/34; assay: Inhibition zone assay; set-up: key: --: "-" means that no inhibition has been found; settings: I and B 10 ul
[26] = test system: Rhodococcus terrae ATCC 25594; assay: Inhibition zone assay; set-up: key: --: "-" means that no inhibition has been found; settings: I and B 10 ul
[27] = test system: Azospirillum lipoferum ATCC 29707; assay: Inhibition zone assay; set-up: key: --: "-" means that no inhibition has been found; settings: I and B 10 ul, L 5 ug
[28] = test system: Neisseria mucosa ATCC 25999; assay: Inhibition zone assay; set-up: key: --: "-" means that no inhibition has been found; settings: I 10 ul
[29] = test system: Pseudomonas syringae pv. maculicola NCPPB 1776; assay: Inhibition zone assay; set-up: key: --: "-" means that no inhibition has been found; settings: * synthetic ApidIa and heattreated immune lymph instead of Bee6 and native immune lymph
[30] = test system: Serratia plymuthica ATCC 183; assay: Inhibition zone assay; set-up: key: --: "-" means that no inhibition has been found; settings: I and B 10 ul, L 5 ug
[31] = test system: Serratia marcescens ATCC 17991; assay: Inhibition zone assay; set-up: key: --: "-" means that no inhibition has been found
[32] = test system: Corynebacterium diphteriae HB 11 t1; assay: Inhibition zone assay; set-up: key: --: "-" means that no inhibition has been found; settings: I 10 ul
[33] = test system: Serratia liquefaciens DSM 30125; assay: Inhibition zone assay; set-up: key: --: "-" means that no inhibition has been found; settings: I 10 ul, L 5 ug

CC[C@H](C)[C@H](NC(=O)[C@H](CCCCN)NC(=O)[C@@H]1CCCN1C(=O)[C@H](CC(N)=O)NC(=O)[C@H](Cc1ccccc1)NC(=O)[C@@H]1CCCN1C(=O)CNC(=O)[C@H](CCC(N)=O)NC(=O)CNC(=O)[C@@H]1CCCN1C(=O)[C@H](Cc1ccccc1)NC(=O)[C@@H](NC(=O)[C@@H]1CCCN1C(=O)[C@H](Cc1ccccc1)NC(=O)[C@@H]1CCCN1C(=O)[C@H](CCCNC(=N)N)NC(=O)[C@H](CCCNC(=N)N)NC(=O)CNC(=O)[C@@H]1CCCN1C(=O)[C@H](CCC(N)=O)NC(=O)[C@@H]1CCCN1C(=O)[C@@H](NC(=O)[C@H](CC(N)=O)NC(=O)[C@@H]1CCCN1C(=O)[C@H](CC(C)C)NC(=O)[C@@H]1CCCN1C(=O)[C@@H](NC(=O)[C@@H](N)Cc1ccc(O)cc1)C(C)C)C(C)C)[C@@H](C)O)C(=O)N[C@@H](CCCCN)C(=O)N[C@@H](Cc1c[nH]c2ccccc12)C(=O)N1CCC[C@H]1C(=O)N[C@@H](CCC(N)=O)C(=O)NCC(=O)N[C@@H](Cc1ccc(O)cc1)C(=O)O [bee 9] (H-YVPLPNVPQPGRRPFPTFPGQGPFNPKIKWPQGY-OH)
diameter of growth-inhibition zone [1]: --
diameter of growth-inhibition zone [2]: --
diameter of growth-inhibition zone (Bacillus cereus LMG 2098): --
diameter of growth-inhibition zone [3]: 9 mm
diameter of growth-inhibition zone [4]: --
diameter of growth-inhibition zone [5]: --
diameter of growth-inhibition zone [6]: 5 mm
susceptibility, in words (Streptococci): resistant
diameter of growth-inhibition zone [7]: --
diameter of growth-inhibition zone [8]: 4 mm
diameter of growth-inhibition zone (ATCC 17991): --
diameter of growth-inhibition zone [9]: --
diameter of growth-inhibition zone [10]: --
diameter of growth-inhibition zone [11]: --
diameter of growth-inhibition zone [12]: 4 mm
diameter of growth-inhibition zone [13]: --
diameter of growth-inhibition zone [14]: --
diameter of growth-inhibition zone [15]: --
diameter of growth-inhibition zone [16]: --
diameter of growth-inhibition zone [17]: --
diameter of growth-inhibition zone [18]: --
diameter of growth-inhibition zone [19]: --
diameter of growth-inhibition zone [20]: --
diameter of growth-inhibition zone [21]: --
diameter of growth-inhibition zone (Salmonella Wien 83/16): --
diameter of growth-inhibition zone [22]: --
diameter of growth-inhibition zone [23]: --
diameter of growth-inhibition zone [24]: --
diameter of growth-inhibition zone [25]: --
diameter of growth-inhibition zone [26]: --
diameter of growth-inhibition zone [27]: --
diameter of growth-inhibition zone [28]: --
diameter of growth-inhibition zone [29]: --
diameter of growth-inhibition zone [30]: --
diameter of growth-inhibition zone [31]: --
diameter of growth-inhibition zone [32]: --
diameter of growth-inhibition zone [33]: --
